21 compounds from US20240336606A1 (Suzhou Zelgen Biopharmaceuticals Co., Ltd., priority 2020, published 2024) can be followed below.

Structures are written as SMILES. Counter-ions that a name gives are not always drawn.

For the assay, the target named is T1, binding of KRAS^G12C to SOS1 (Homo sapiens, UniProt Q07889).
T1 construct: Tag1 (unspecified)
T1 sequence (Q07889 1-1333): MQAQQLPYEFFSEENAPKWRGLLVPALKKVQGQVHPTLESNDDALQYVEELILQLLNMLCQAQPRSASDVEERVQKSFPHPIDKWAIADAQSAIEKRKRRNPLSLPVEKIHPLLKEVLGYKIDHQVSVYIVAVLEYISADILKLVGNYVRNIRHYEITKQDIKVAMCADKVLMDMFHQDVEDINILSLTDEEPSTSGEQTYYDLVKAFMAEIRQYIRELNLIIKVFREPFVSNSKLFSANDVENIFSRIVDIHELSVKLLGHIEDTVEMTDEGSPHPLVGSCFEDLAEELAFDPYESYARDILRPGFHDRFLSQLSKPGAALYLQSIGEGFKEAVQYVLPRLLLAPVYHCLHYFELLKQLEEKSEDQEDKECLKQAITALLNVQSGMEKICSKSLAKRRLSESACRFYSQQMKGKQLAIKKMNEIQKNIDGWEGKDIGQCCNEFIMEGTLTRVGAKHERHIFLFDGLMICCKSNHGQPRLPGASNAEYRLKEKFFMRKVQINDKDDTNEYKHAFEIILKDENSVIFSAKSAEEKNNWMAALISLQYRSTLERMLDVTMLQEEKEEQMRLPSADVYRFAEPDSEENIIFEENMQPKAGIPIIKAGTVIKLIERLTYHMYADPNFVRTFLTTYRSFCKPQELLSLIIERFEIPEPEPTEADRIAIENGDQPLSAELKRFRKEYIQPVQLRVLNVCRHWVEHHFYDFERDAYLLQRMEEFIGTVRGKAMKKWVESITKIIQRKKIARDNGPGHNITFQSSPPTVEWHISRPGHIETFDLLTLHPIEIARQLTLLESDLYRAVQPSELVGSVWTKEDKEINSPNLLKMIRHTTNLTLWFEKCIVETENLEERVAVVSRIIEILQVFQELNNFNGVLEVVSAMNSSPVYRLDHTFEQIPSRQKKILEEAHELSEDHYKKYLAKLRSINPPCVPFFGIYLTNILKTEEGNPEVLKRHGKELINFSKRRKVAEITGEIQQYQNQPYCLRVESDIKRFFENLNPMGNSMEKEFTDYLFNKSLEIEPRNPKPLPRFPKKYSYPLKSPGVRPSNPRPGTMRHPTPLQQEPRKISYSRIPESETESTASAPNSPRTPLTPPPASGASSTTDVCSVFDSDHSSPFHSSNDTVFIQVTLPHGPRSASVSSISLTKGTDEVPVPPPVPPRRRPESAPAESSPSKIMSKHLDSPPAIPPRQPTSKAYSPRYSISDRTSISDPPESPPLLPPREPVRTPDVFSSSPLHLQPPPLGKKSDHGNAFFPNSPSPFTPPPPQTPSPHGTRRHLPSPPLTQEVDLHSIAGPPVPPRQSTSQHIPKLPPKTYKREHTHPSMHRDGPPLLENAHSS
The assay can be described thus: Inhibition of the binding of KRAS^G12C to SOS1. The settings on record: Tag1-SOS1 / Tag2-KRAS^G12C, 2 h incubation at room temperature; read-out: IC50 (nM), inhibitory activity on the binding of KRAS^G12C to SOS1. As for the experimental part:
• (1) Gradient dilution of the test compounds: 10 mM mother solution (dissolved in 100% DMSO) was added to a 384-well test plate, the final content of DMSO being 0.25%.
(2) 5 μL of Tag1-SOS1 solution was added to the test plate, and 5 μL of dilution buffer was added to the control group.
(3) 5 μL of Tag2-KRAS^G12C solution was added to the test plate.
(4) 10 μL of Anti-Tag1-Tb3+ and Anti-Tag2-XL665 detection solution were added to the test plate. The plate was centrifuged at 1000 rpm for 1 min and incubated at room temperature for 2 h.
(6) The IC50 values for the compounds were finally calculated using GraphPad Prism software, and a curve was fit and plotted.
The inhibitory activity of the compounds of the examples of the present invention on the binding of KRAS^G12C enzyme to SOS1 is shown in Table 1.
`COc1cc2nc(C)nc(N[C@H](C)c3cc(N)cc(C(F)(F)F)c3)c2cc1OCCOCC1CC1` [Example 58, (R)—N-(1-(3-Amino-5-(trifluoromethyl)phenyl)ethyl)-6-(2-(cyclopropylmethoxy)ethoxy)-7-methoxy-2-methylquinazolin-4-amine]: the IC50 was 5.1 nM.

Take `COCC(COC)Oc1cc2c(N[C@H](C)c3cc(N)cc(C(F)(F)F)c3)nc(C)nc2cc1OC` [Example 59, (R)—N-(1-(3-Amino-5-(trifluoromethyl)phenyl)ethyl)-6-((1,3-dimethoxypropan-2-yl)oxy)-7-methoxy-2-methylquinazolin-4-amine]: the IC50 stood at 4.7 nM. To `COc1cc2nc(C)nc(N[C@H](C)c3cc(C(F)(F)F)cc(N)n3)c2cc1OCCOC1COC1` [Example 60, (R)—N-(1-(6-Amino-4-(trifluoromethyl)pyridin-2-yl)ethyl)-7-methoxy-2-methyl-6-(2-(oxetan-3-yloxy)ethoxy)quinazolin-4-amine] belongs 18 nM; to `COc1cc2nc(C)nc(N[C@H](C)c3cc(N)cc(C(F)(F)F)c3)c2cc1OCCOC1(C)COC1` [Example 61, (R)—N-(1-(3-Amino-5-(trifluoromethyl)phenyl)ethyl)-7-methoxy-2-methyl-6-(2-((3-methyloxetan-3-yl)oxy)ethoxy)quinazolin-4-amine], 3.7 nM. With `COc1cc2nc(C)nc(N[C@H](C)c3cc(N)cc(C(F)(F)F)c3)c2cc1OCCOc1cccnc1` [Example 62, (R)—N-(1-(3-Amino-5-(trifluoromethyl)phenyl)ethyl)-7-methoxy-2-methyl-6-(2-(pyridin-3-yloxy)ethoxy)quinazolin-4-amine], the IC50 stood at 5.3 nM. Consider `COCC1(C(C)Oc2cc3c(N[C@H](C)c4cc(N)cc(C(F)(F)F)c4)nc(C)nc3cc2OC)CC1` (stereo partly drawn) [Example 63, N—((R)-1-(3-Amino-5-(trifluoromethyl)phenyl)ethyl)-7-methoxy-6-(1-(1-(methoxymethyl)cyclopropyl)ethoxy)-2-methylquinazolin-4-amine], for which the IC50 turned out to be 12 nM. Take `COc1cc2nc(C)nc(N[C@H](C)c3cc(N)cc(C(F)(F)F)c3)c2cc1OCCOC1(C)CCC1` [Example 64, (R)—N-(1-(3-Amino-5-(trifluoromethyl)phenyl)ethyl)-7-methoxy-2-methyl-6-(2-(1-methylcyclobutoxy)ethoxy)quinazolin-4-amine]: the IC50 is 8.7 nM.

`COc1cc2nc(C)nc(N[C@H](C)c3cc(N)cc(C(F)(F)F)c3)c2cc1OCC1(C(C)OC)CC1` (stereo partly drawn) [Example 65, N—((R)-1-(3-Amino-5-(trifluoromethyl)phenyl)ethyl)-7-methoxy-6-((1-(1-methoxyethyl)cyclopropyl)methoxy)-2-methylquinazolin-4-amine]: the half-maximal inhibitory concentration (IC50) is 16 nM. In the case of `COc1cc2nc(C)nc(N[C@H](C)c3cc(N)cc(C(F)(F)F)c3)c2cc1OCCO[C@H]1CCOC1` [Example 66, N—((R)-1-(3-Amino-5-(trifluoromethyl)phenyl)ethyl)-7-methoxy-2-methyl-6-(2-(((S)-tetrahydrofuran-3-yl)oxy)ethoxy)quinazolin-4-amine] it was 7 nM; in that of `COc1cc2nc(C)nc(N[C@H](C)c3cc(N)cc(C(F)(F)F)c3)c2cc1OCCO[C@@H]1CCOC1` [Example 67, N—((R)-1-(3-Amino-5-(trifluoromethyl)phenyl)ethyl)-7-methoxy-2-methyl-6-(2-(((R)-tetrahydrofuran-3-yl)oxy)ethoxy)quinazolin-4-amine], 4.2 nM; in that of `COc1cc2nc(C)nc(N[C@H](C)c3cc(N)cc(C(F)(F)F)c3)c2cc1OC[C@@H](C)OC1COC1` [Example 68, N—((R)-1-(3-Amino-5-(trifluoromethyl)phenyl)ethyl)-7-methoxy-2-methyl-6-((R)-2-(oxetan-3-yloxy)propoxy)quinazolin-4-amine], 6.2 nM. `COc1cc2nc(C)nc(N[C@H](C)c3cc(N)cc(C(F)(F)F)c3)c2cc1OC[C@H](C)OC1COC1` [Example 69, N—((R)-1-(3-Amino-5-(trifluoromethyl)phenyl)ethyl)-7-methoxy-2-methyl-6-((S)-2-(oxetan-3-yloxy)propoxy)quinazolin-4-amine]: the IC50 amounted to 6.2 nM. Consider `COc1cc2nc(C)nc(N[C@H](C)c3cc(N)cc(C(F)(F)F)n3)c2cc1OCCOC1COC1` [Example 70, (R)—N-(1-(4-Amino-6-(trifluoromethyl)pyridin-2-yl)ethyl)-7-methoxy-2-methyl-6-(2-(oxetan-3-yloxy)ethoxy)quinazolin-4-amine], for which the IC50 is 24 nM. As for `COCCOc1cc2c(N[C@@H](C)c3cccc(C(F)(F)C(C)(C)O)c3F)nc(C)nc2cc1OC` [Example 71, (S)-1,1-Difluoro-1-(2-fluoro-3-(1-((7-methoxy-6-(2-methoxyethoxy)-2-methylquinazolin-4-yl)amino)ethyl)phenyl)-2-methylpropan-2-ol formate], the IC50 was 314 nM. To `COc1cc2nc(C)nc(N[C@H](C)c3cc(N)cc(C(F)(F)F)n3)c2cc1OCCOC1(C)CCC1` [Example 73, (R)—N-(1-(4-Amino-6-(trifluoromethyl)pyridin-2-yl)ethyl)-7-methoxy-2-methyl-6-(2-(1-methylcyclobutyloxy)ethoxy)quinazolin-4-amine] belongs 15 nM. To `COCCOc1cc2c(N[C@H](C)c3cc(C(F)(F)C(C)(C)O)ccn3)nc(C)nc2cc1OC` [Example 75] belongs 40 nM. Turning to `COCCOc1cc2c(N[C@H](C)c3cccc(C(F)(F)C(C)(C)O)n3)nc(C)nc2cc1OC` [Example 76], the IC50 stood at 188 nM. Regarding `COCCOc1cc2c(N[C@H](C)c3cncc(C(F)(F)C(C)(C)O)c3)nc(C)nc2cc1OC` [Example 77], the IC50 stood at 924 nM. Consider `COCCOc1cc2c(N[C@H](C)c3cccc(S(N)(=O)=O)c3)nc(C)nc2cc1OC` [Example 84, (R)-3-(1-((7-Methoxy-6-(2-methoxyethoxy)-2-methylquinazolin-4-yl)amino)ethyl)benzenes ulfonamide], for which the IC50 worked out at 18 nM. As for `COCCOc1cc2c(N[C@H](C)c3cc(OC)cc(C(F)(F)C(C)(C)O)c3)nc(C)nc2cc1OC` [Example 87, (R)-1,1-Difluoro-1-(3-methoxy-5-(1-((7-methoxy-6-(2-methoxyethoxy)-2-methylquinazolin-4-yl)amino)ethyl)phenyl)-2-methylpropan-2-ol], the IC50 was 170 nM. To `COCCOc1cc2c(N[C@H](C)c3cccc(C(F)(F)C(C)(C)O)c3Cl)nc(C)nc2cc1OC` [Example 88, (R)-1-(2-Chloro-3-(1-((7-methoxy-6-(2-methoxyethoxy)-2-methylquinazolin-4-yl)amino)ethyl)phenyl)-1,1-difluoro-2-methylpropan-2-ol] belongs 20 nM.
